Measurements from patent publication US20230017045A1, “PYRIDINE AND PYRIMIDINE CARBOXYLATE HERBICIDES AND METHODS OF USE THEREOF” (Dow AgroSciences LLC, priority 2017, published 2023).
Where two headings read alike, the source gives them in different places.

Test system: test plant species
Assay: Post-emergent herbicidal activity test (greenhouse, foliar spray, visual growth reduction)
Type: in vivo
Settings: post-emergence, 336 h, 140 g ai/ha
How it was run: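 Scoring used a 0 to 100 percent visual scale of growth reduction against solvent-treated controls, read 14 d after spraying. Applications went onto plants at first or second true leaf stage, 187 L/ha, with crop oil concentrate and X-77 surfactant in the carrier. Post-treatment watering was by subirrigation to avoid wash-off.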

[1] = ALOMY: blackgrass (Alopecurus myosuroides), 14 days after application, read-out: Visual Growth Reduction (%) 14 Days After Application, ALOMY
[2] = AMARE: redroot pigweed (Amaranthus retroflexus), 14 days after application, read-out: Visual Growth Reduction (%) 14 Days After Application, AMARE
[3] = AVEFA: wild oat (Avena fatua), 14 days after application, read-out: Visual Growth Reduction (%) 14 Days After Application, AVEFA
[4] = CHEAL: lambsquarters (Chenopodium album), 14 days after application, read-out: Visual Growth Reduction (%) 14 Days After Application, CHEAL
[5] = CIRAR: canada thistle (Cirsium arvense), 14 days after application, read-out: Visual Growth Reduction (%) 14 Days After Application, CIRAR
[6] = CYPES: yellow nutsedge (Cyperus esculentus), 14 days after application, read-out: Visual Growth Reduction (%) 14 Days After Application, CYPES
[7] = DIGSA: crabgrass (Digitaria sanguinalis), 14 days after application, read-out: Visual Growth Reduction (%) 14 Days After Application, DIGSA
[8] = ECHCG: barnyardgrass (Echinochloa crus-galli), 14 days after application, read-out: Visual Growth Reduction (%) 14 Days After Application, ECHCG
[9] = IPOHE: ivy-leaf morning glory (Ipomoea hederacea), 14 days after application, read-out: Visual Growth Reduction (%) 14 Days After Application, IPOHE
[10] = KCHSC: kochia (Bassia scoparia), 14 days after application, read-out: Visual Growth Reduction (%) 14 Days After Application, KCHSC
[11] = ORYSA: rice (Oryza sativa), 14 days after application, read-out: Visual Growth Reduction (%) 14 Days After Application, ORYSA
[12] = SETFA: giant foxtail (Setaria faberi), 14 days after application, read-out: Visual Growth Reduction (%) 14 Days After Application, SETFA
[13] = SORVU: grain sorghum (Sorghum vulgare), 14 days after application, read-out: Visual Growth Reduction (%) 14 Days After Application, SORVU
[14] = STEME: common chickweed (Stellaria media), 14 days after application, read-out: Visual Growth Reduction (%) 14 Days After Application, STEME
[15] = TRZAS: wheat, spring (Triticum aestivum), 14 days after application, read-out: Visual Growth Reduction (%) 14 Days After Application, TRZAS
[16] = blackgrass (Alopecurus myosuroides), 14 Days After Application, read-out: Visual Growth Reduction (%) ALOMY
[17] = canada thistle (Cirsium arvense), 14 Days After Application, read-out: Visual Growth Reduction (%) CIRAR
[18] = crabgrass (Digitaria sanguinalis), 14 Days After Application, read-out: Visual Growth Reduction (%) DIGSA
[19] = lambsquarters (Chenopodium album), 14 Days After Application, read-out: Visual Growth Reduction (%) CHEAL
[20] = redroot pigweed (Amaranthus retroflexus), 14 Days After Application, read-out: Visual Growth Reduction (%) AMARE
[21] = wild oat (Avena fatua), 14 Days After Application, read-out: Visual Growth Reduction (%) AVEFA
[22] = yellow nutsedge (Cyperus esculentus), 14 Days After Application, read-out: Visual Growth Reduction (%) CYPES

Structure (SMILES)	pest or weed control at 140 g/ha [1] [%]	pest or weed control at 140 g/ha [2] [%]	pest or weed control at 140 g/ha [3] [%]	pest or weed control at 140 g/ha [4] [%]	pest or weed control at 140 g/ha [5] [%]	pest or weed control at 140 g/ha [8] [%]	pest or weed control at 140 g/ha [9] [%]	pest or weed control at 140 g/ha [10] [%]	pest or weed control at 140 g/ha [11] [%]	pest or weed control at 140 g/ha [12] [%]	pest or weed control at 140 g/ha [13] [%]	pest or weed control at 140 g/ha [14] [%]	pest or weed control at 140 g/ha [15] [%]	pest or weed control at 140 g/ha [16] [%]	pest or weed control at 140 g/ha [17] [%]	pest or weed control at 140 g/ha [18] [%]	pest or weed control at 140 g/ha [19] [%]	pest or weed control at 140 g/ha [20] [%]	pest or weed control at 140 g/ha [21] [%]	pest or weed control at 140 g/ha [22] [%]	further results
COC(=O)c1nc(-c2ccc(C(F)(F)F)cc2Cl)ncc1OC [F104, Methyl 2-(2-chloro-4-(trifluoromethyl)phenyl)-5-methoxypyrimidine-4-carboxylate]	0 to 29	0 to 29	0 to 29	0 to 29	0 to 29	0 to 29	60 to 74	0 to 29	0 to 29	0 to 29	60 to 74	0 to 29	0 to 29	–	–	–	–	–	–	–	pest or weed control at 140 g/ha [6]: 0 to 29%; pest or weed control at 140 g/ha [7]: 60 to 74%
O=C(O)c1nc(-c2ccc(C(F)(F)F)cc2Cl)c(F)cc1Cl [F352, 3-chloro-6-(2-chloro-4-(trifluoromethyl)phenyl)-5-fluoropicolinic acid]	–	–	–	–	–	95 to 100	95 to 100	85 to 94	85 to 94	95 to 100	95 to 100	60 to 74	95 to 100	75 to 84	95 to 100	95 to 100	95 to 100	95 to 100	85 to 94	0 to 29	–
O=C(OCc1ccccn1)c1nc(-c2ccc(C(F)(F)F)cc2Cl)ccc1Cl [F54, Pyridin-2-ylmethyl 3-chloro-6-(2-chloro-4-(trifluoromethyl)phenyl)picolinate]	0 to 29	0 to 29	0 to 29	0 to 29	0 to 29	75 to 84	95 to 100	95 to 100	0 to 29	85 to 94	95 to 100	0 to 29	85 to 94	–	–	–	–	–	–	–	pest or weed control at 140 g/ha [6]: 0 to 29%; pest or weed control at 140 g/ha [7]: 0 to 29%
COC(=O)c1nc(-c2ccc(F)cc2)c(F)cc1Cl [F227, Methyl 3-chloro-5-fluoro-6-(4-fluorophenyl) picolinate]	–	–	–	–	–	0 to 29	60 to 74	0 to 29	0 to 29	0 to 29	60 to 74	0 to 29	0 to 29	0 to 29	30 to 44	30 to 44	75 to 84	0 to 29	0 to 29	0 to 29	–
COC(=O)c1nc(-c2ccc(C(F)(F)F)cc2OC)ccc1Cl [F28, Methyl 3-chloro-6-(2-methoxy-4-(trifluoromethyl)phenyl)picolinate]	0 to 29	60 to 74	0 to 29	60 to 74	75 to 84	0 to 29	95 to 100	30 to 44	0 to 29	30 to 44	75 to 84	0 to 29	0 to 29	–	–	–	–	–	–	–	pest or weed control at 140 g/ha [6]: 0 to 29%; pest or weed control at 140 g/ha [7]: 45 to 59%
Cc1cc(C(F)(F)F)ccc1-c1nc(C(=O)O)c(Cl)cc1F [F267, 3-Chloro-5-fluoro-6-(2-methyl-4-(trifluoromethyl)phenyl) picolinic acid]	–	–	–	–	–	75 to 84	95 to 100	60 to 74	0 to 29	85 to 94	95 to 100	0 to 29	60 to 74	30 to 44	85 to 94	85 to 94	95 to 100	95 to 100	45 to 59	0 to 29	–
COC(=O)c1nc(-c2cnc(C(F)(F)F)cc2Cl)ccc1Cl [F194, Methyl 4′,5-dichloro-6′-(trifluoromethyl)-[2,3′-bipyridine]-6-carboxylate]	0 to 29	0 to 29	0 to 29	30 to 44	75 to 84	45 to 59	95 to 100	0 to 29	0 to 29	0 to 29	45 to 59	0 to 29	0 to 29	–	–	–	–	–	–	–	pest or weed control at 140 g/ha [6]: 0 to 29%; pest or weed control at 140 g/ha [7]: 0 to 29%
COC(=O)c1nc(-c2ccc(N)cc2Cl)c(F)cc1Cl [F358, Methyl 6-(4-amino-2-chlorophenyl)-3-chloro-5-fluoropicolinate]	–	–	–	–	–	0 to 29	0 to 29	0 to 29	0 to 29	0 to 29	0 to 29	0 to 29	0 to 29	0 to 29	0 to 29	0 to 29	0 to 29	0 to 29	0 to 29	0 to 29	–
COC(=O)c1nc(-c2cc3c(cc2OC)OC(F)(F)O3)ccc1Cl [F353, Methyl 3-chloro-6-(2,2-difluoro-6-methoxybenzo[d][1,3]dioxol-5-yl)picolinate]	–	–	–	–	–	0 to 29	95 to 100	0 to 29	0 to 29	0 to 29	45 to 59	0 to 29	0 to 29	0 to 29	0 to 29	0 to 29	45 to 59	0 to 29	0 to 29	0 to 29	–
COc1c(-c2nc(C(=O)O)c(Cl)cc2F)ccc(C(F)F)c1F [F230, 3-Chloro-6-(4-(difluoromethyl)-3-fluoro-2-methoxyphenyl)-5-fluoropicolinic acid]	–	–	–	–	–	60 to 74	95 to 100	95 to 100	0 to 29	30 to 44	60 to 74	0 to 29	0 to 29	0 to 29	95 to 100	0 to 29	95 to 100	95 to 100	0 to 29	0 to 29	–
